Measured values taken from patent US11083725B2 (priority 2014, dated 2021).

System: NHBE cells
Assay: Biolog metabolic array: substrate use by NHBE cells with or without CA09 infection
Assay type: cell-based, human
Conditions: for Substrate use, 590 nm absorbance normalized to zero hour, 1 hr: Biolog PMM2, 1 hr; for Substrate use, 590 nm absorbance normalized to zero hour, 5 hr: Biolog PMM2, 5 hr; for Substrate use, 590 nm absorbance normalized to zero hour, 7 hr: Biolog PMM2, 7 hr; for Substrate use, 590 nm absorbance normalized to zero hour, 0 hr: Biolog PMM2, 0 hr
[1] = Control (uninfected) NHBE cells
[2] = Virus (CA09-infected, MOI 1) NHBE cells
[3] = Virus: CA09-infected NHBE cells, MOI 1, Biolog PMM2
[4] = Virus (CA09, MOI 1) infected NHBE cells

| SMILES | 590 nm absorbance normalized to zero hour (substrate use), 1 hr [1] | 590 nm absorbance normalized to zero hour (substrate use), 2 hr [1] | 590 nm absorbance normalized to zero hour (substrate use), 3 hr [1] | 590 nm absorbance normalized to zero hour (substrate use), 4 hr [1] | 590 nm absorbance normalized to zero hour (substrate use), 6 hr [1] | 590 nm absorbance normalized to zero hour (substrate use), 8 hr [1] | 590 nm absorbance normalized to zero hour (substrate use), 9 hr [1] | 590 nm absorbance normalized to zero hour (substrate use), 10 hr [1] | 590 nm absorbance normalized to zero hour (substrate use), 11 hr [1] | Substrate use, 590 nm absorbance normalized to zero hour, 1 hr [1] | Substrate use, 590 nm absorbance normalized to zero hour, 5 hr [1] | Substrate use, 590 nm absorbance normalized to zero hour, 7 hr [1] | 590 nm absorbance normalized to zero hour (substrate use), 1 hr [2] | 590 nm absorbance normalized to zero hour (substrate use), 2 hr [2] | 590 nm absorbance normalized to zero hour (substrate use), 3 hr [2] | 590 nm absorbance normalized to zero hour (substrate use), 4 hr [2] | 590 nm absorbance normalized to zero hour (substrate use), 6 hr [2] | 590 nm absorbance normalized to zero hour (substrate use), 8 hr [2] | 590 nm absorbance normalized to zero hour (substrate use), 9 hr [2] | 590 nm absorbance normalized to zero hour (substrate use), 10 hr [2] | also measured |
| --- | --- | --- | --- | --- | --- | --- | --- | --- | --- | --- | --- | --- | --- | --- | --- | --- | --- | --- | --- | --- | --- |
| OC[C@H]1O[C@@H](O[C@@H]2[C@@H](CO)OC(O)(CO)[C@H]2O)[C@H](O)[C@@H](O)[C@H]1O (mixture of isomers) [Lactulose] | 1.71 | 2.30 | 2.70 | 2.88 | 3.78 | 4.04 | 4.27 | 4.46 | 5.14 | 1.71 | 3.40 | 3.82 | 1.68 | 2.24 | 2.56 | 2.71 | 3.31 | 3.70 | 4.05 | 4.25 | 590 nm absorbance normalized to zero hour (substrate use), 5 hr [2]: 3.13; 590 nm absorbance normalized to zero hour (substrate use), 7 hr [2]: 3.50; 590 nm absorbance normalized to zero hour (substrate use), 11 hr [2]: 4.63; 590 nm absorbance normalized to zero hour (substrate use), 1 hr [3]: 1.68; 590 nm absorbance normalized to zero hour (substrate use), 2 hr [3]: 2.24; 590 nm absorbance normalized to zero hour (substrate use), 3 hr [3]: 2.56; 590 nm absorbance normalized to zero hour (substrate use), 4 hr [3]: 2.71; 590 nm absorbance normalized to zero hour (substrate use), 5 hr [3]: 3.13; 590 nm absorbance normalized to zero hour (substrate use), 6 hr [3]: 3.31; 590 nm absorbance normalized to zero hour (substrate use), 7 hr [3]: 3.50; 590 nm absorbance normalized to zero hour (substrate use), 8 hr [3]: 3.70; 590 nm absorbance normalized to zero hour (substrate use), 9 hr [3]: 4.05; 590 nm absorbance normalized to zero hour (substrate use), 10 hr [3]: 4.25; 590 nm absorbance normalized to zero hour (substrate use), 11 hr [3]: 4.63 |
| O=P(O)(O)OC[C@H](O)CO (racemic) [D,L-a-Glycerol Phosphate] | 0.34 | 0.48 | 0.56 | 0.60 | 0.71 | 0.83 | 0.91 | 0.91 | 1.05 | 0.34 | 0.70 | 0.79 | 2.01 | 2.64 | 3.07 | 3.24 | 3.99 | 4.43 | 4.93 | 5.12 | 590 nm absorbance normalized to zero hour (substrate use), 0 hr [1]: 1.00; Substrate use, 590 nm absorbance normalized to zero hour, 0 hr [1]: 1.00; Substrate use, 590 nm absorbance normalized to zero hour, 0 hr [4]: 1.00; Substrate use, 590 nm absorbance normalized to zero hour, 1 hr [4]: 2.01; Substrate use, 590 nm absorbance normalized to zero hour, 5 hr [4]: 3.72; Substrate use, 590 nm absorbance normalized to zero hour, 7 hr [4]: 4.18; 590 nm absorbance normalized to zero hour (substrate use), 0 hr [2]: 1.00; 590 nm absorbance normalized to zero hour (substrate use), 11 hr [2]: 5.62 |
| CC[C@H](O)C(=O)O (racemic) [D,L-a-Hydroxy-Butyric Acid] | 0.92 | 1.05 | 0.99 | 1.01 | 0.56 | 0.72 | 1.79 | 0.74 | 2.19 | 0.92 | 1.18 | 1.41 | 1.29 | 1.58 | 1.74 | 1.84 | 2.10 | 2.26 | 2.35 | 2.39 | 590 nm absorbance normalized to zero hour (substrate use), 0 hr [1]: 1.00; Substrate use, 590 nm absorbance normalized to zero hour, 0 hr [1]: 1.00; 590 nm absorbance normalized to zero hour (substrate use), 0 hr [2]: 1.00; 590 nm absorbance normalized to zero hour (substrate use), 5 hr [2]: 2.00; 590 nm absorbance normalized to zero hour (substrate use), 7 hr [2]: 2.18; 590 nm absorbance normalized to zero hour (substrate use), 11 hr [2]: 2.21; 590 nm absorbance normalized to zero hour (substrate use), 0 hr [3]: 1.00; 590 nm absorbance normalized to zero hour (substrate use), 1 hr [3]: 1.29; 590 nm absorbance normalized to zero hour (substrate use), 2 hr [3]: 1.58; 590 nm absorbance normalized to zero hour (substrate use), 3 hr [3]: 1.74; 590 nm absorbance normalized to zero hour (substrate use), 4 hr [3]: 1.84; 590 nm absorbance normalized to zero hour (substrate use), 5 hr [3]: 2.00; 590 nm absorbance normalized to zero hour (substrate use), 6 hr [3]: 2.10; 590 nm absorbance normalized to zero hour (substrate use), 7 hr [3]: 2.18; 590 nm absorbance normalized to zero hour (substrate use), 8 hr [3]: 2.26; 590 nm absorbance normalized to zero hour (substrate use), 9 hr [3]: 2.35; 590 nm absorbance normalized to zero hour (substrate use), 10 hr [3]: 2.39; 590 nm absorbance normalized to zero hour (substrate use), 11 hr [3]: 2.21 |
| CC(O)CO (stereo not drawn) [1,2-Propanediol] | 1.28 | 1.41 | 1.17 | 1.19 | 0.68 | 1.12 | 1.22 | 1.15 | 1.18 | 1.28 | 1.27 | 1.17 | 1.95 | 2.44 | 2.83 | 2.94 | 3.55 | 3.87 | 4.24 | 4.34 | 590 nm absorbance normalized to zero hour (substrate use), 0 hr [1]: 1.00; Substrate use, 590 nm absorbance normalized to zero hour, 0 hr [1]: 1.00; 590 nm absorbance normalized to zero hour (substrate use), 0 hr [2]: 1.00; 590 nm absorbance normalized to zero hour (substrate use), 5 hr [2]: 3.29; 590 nm absorbance normalized to zero hour (substrate use), 7 hr [2]: 3.75; 590 nm absorbance normalized to zero hour (substrate use), 11 hr [2]: 4.75; 590 nm absorbance normalized to zero hour (substrate use), 0 hr [3]: 1.00; 590 nm absorbance normalized to zero hour (substrate use), 1 hr [3]: 1.95; 590 nm absorbance normalized to zero hour (substrate use), 2 hr [3]: 2.44; 590 nm absorbance normalized to zero hour (substrate use), 3 hr [3]: 2.83; 590 nm absorbance normalized to zero hour (substrate use), 4 hr [3]: 2.94; 590 nm absorbance normalized to zero hour (substrate use), 5 hr [3]: 3.29; 590 nm absorbance normalized to zero hour (substrate use), 6 hr [3]: 3.55; 590 nm absorbance normalized to zero hour (substrate use), 7 hr [3]: 3.75; 590 nm absorbance normalized to zero hour (substrate use), 8 hr [3]: 3.87; 590 nm absorbance normalized to zero hour (substrate use), 9 hr [3]: 4.24; 590 nm absorbance normalized to zero hour (substrate use), 10 hr [3]: 4.34; 590 nm absorbance normalized to zero hour (substrate use), 11 hr [3]: 4.75 |
